SMILES strings stand for the structures.

The test system of the test is PMA/ionomycin-stimulated PBMC proliferation. Nature of the test: Inhibition of PMA/ionomycin-stimulated peripheral blood mononuclear cell proliferation. It counts as cell-based. As to conditions: human PBMC, PMA 0.5 ng/ml + ionomycin 500 ng/ml, 72 hours, 3H-thymidine incorporation; read-out: PIA50 (the source's name) (converted). As for the experimental part:
Inhibition of PMA/Ionomycin-Stimulated Peripheral Blood Mononuclear Cell Proliferation
The assay for PMA/ionomycin-stimulated PBMC proliferation was performed in 96-well flat-bottomed microtitre plates. Compounds were prepared as 10 mM stock solutions in dimethyl sulfoxide. A 50-fold dilution of this was prepared in RPMI and serial dilutions were prepared from this solution. 10 μl of the 50-fold diluted stock, or dilutions of it, were added to the well to give concentrations in the assay starting at 9.5 μM and going down. Into each well was placed 1×10^5 PBMC, prepared from human peripheral blood from a single donor, in RPMI1640 medium supplemented with 10% human serum, 2 mM glutamine and penicillin/streptomycin. Phorbol myristate acetate (PMA) (0.5 ng/ml final concentration) and ionomycin (500 ng/ml final concentration) were added to these cells in supplemented RPMI1640 medium (as above) so that the final volume of the assay was 0.2 ml. The cells were incubated at 37° C. in a humidified atmosphere at 5% carbon dioxide for 72 hours. ^3H-Thymidine (0.5 μCi) was added for the final 6 hours of the incubation. The level of radioactivity incorporated by the cells was then determined and this is a measure of proliferation.

Take `Cc1nn(-c2ncccn2)c(C)c1Cc1sc2c(c1C(=O)N1C[C@H](O)CO1)c(=O)n(C)c(=O)n2C(C)C` [Example 1, 6-[[3,5-dimethyl-1-(2-pyrimidinyl)-1H-pyrazol-4-yl]methyl]-5-[[(4S)-4-hydroxy-2-isoxazolidinyl]carbonyl]-3-methyl-1-(1-methylethyl)thieno[2,3-d]pyrimidine-2,4(1H,3H)-dione]: the IC50 was 5.01 nM.

In the case of `Cc1nn(-c2nccs2)c(C)c1Cc1sc2c(c1C(=O)N1C[C@H](O)CO1)c(=O)n(C)c(=O)n2C(C)C` [Example 3, (S)-2-[[6-[[3,5-Dimethyl-1-(2-thiazolyl)-1H-pyrazol-4-yl]methyl]-1,2,3,4-tetrahydro-3-methyl-1-(1-methylethyl)-2,4-dioxothieno[2,3-d]pyrimidin-5-yl]carbonyl]-4-isoxazolidinol], the IC50 was 0.851 nM.

(Values after patent publication US20080221131A1, “THIENOPYRIMIDINEDIONES AND THEIR USE IN MODULATION OF AUTOIMMUNE DISEASE” (priority 2003, published 2008).)
